Source: patent US20220243249A1, “ANTAGONISTS OF CAMKII-DELTA 9 AND USES THEREOF” (PEKING UNIVERSITY, priority 2019, published 2022)
Peptide text beside a SMILES is read from it. * marks the point of attachment. Cbz = O=C(OCc1ccccc1)*

How the values were obtained:
CaMKII-δ9 = CaMKII-δ9 protein level, phosphorylation and oxidation in NRVMs under stress; assay type: cell-based, rat; details: for expression of CaMKII-δ9 (protein): Dox 1 μM or H2O2 200 μM, 24 h
Method: NRVMs were isolated from 1-day-old Sprague-Dawley rats, and adenovirus-mediated gene transfer was implemented using methods described previously (Zhang, T. et al., Nature medicine 22, 175-182, doi: 10.1038/nm.4017 (2016)). […]
(§1) Western blot and co-immunoprecipitation were performed as previously described (Zhang, T. et al., Nature medicine 22, 175-182, doi:10.1038/nm.4017 (2016)).

UBE2T [1] = assay: UBE2T protein level by western blot in NRVMs; assay type: cell-based, rat; details: for CaMKII-δ9-induced reduction of the UBE2T protein level: β-lac 5 μM, MG132 10 μM
Method: NRVMs were isolated from 1-day-old Sprague-Dawley rats, and adenovirus-mediated gene transfer was implemented using methods described previously (Zhang, T. et al., Nature medicine 22, 175-182, doi: 10.1038/nm.4017 (2016)). NRVMs were exposed to H2O2 (200 μM) or Dox (1 μM) for 24 h.
as §1

NRVMs = assay: DNA damage by γH2AX and comet assay in NRVMs; assay type: cell-based, rat; details: β-lac 5 μM, MG132 10 μM
Method: Cultured neonatal rat ventricular cardiomyocytes (NRVMs) were treated as indicated, and then washed with cold PBS, following the protocol of the comet assay kit (Trevigen, Cat #: 4250-050-K) under alkaline conditions. Mean tail moments were quantified for 300-500 cells per sample in each experiment, with Comet Assay Software Project (v1.2.3b1).
(§2) Cardiomyocyte immunofluorescence was measured as previously described (Erickson, J. R. et al., Physiological reviews 91, 889-915, doi:10.1152/physrev.00018.2010 (2011)).

UBE2T [2] = assay: Immunostaining of myc-tagged UBE2T location in NRVMs; assay type: cell-based, rat; parameters: dose or concentration left out as unconfirmed
Method: as §2

exon 16 of CaMKII-δ = assay: Transverse aortic constriction (TAC) in CaMKII-δ9 shRNA transgenic mice; assay type: in vivo, mouse
Method: Transverse aortic constriction (TAC) was performed in 6-week-old male mice. Mice were anesthetized under 3% isoflurane via intubation, the chest was opened, the aortic arch was visualized, and a 7-0 silk suture was passed under the arch between the innominate and left common carotid arteries. The suture was secured around both the aorta and a 28-gauge needle, the needle was removed, the chest was closed, and the mouse was extubated. Sham-operated mice underwent an identical procedure except for the aortic ligation. Mice were given buprenorphine via intraperitoneal injection during recovery.
The sequence of miR30-based CaMKII-δ9 shRNA was 5′-[…] […]-3′ (SEQ ID NO: 37). The shRNA with an N-terminal EGFP tag and C-terminal BGH poly A sequences was cloned into the pLKO.1 plasmid containing the U6 promoter. After linearization, gel-purification was performed. This construct was microinjected into the pronuclei of fertilized C57BL/6J mouse eggs. PCR was used for genotyping. The primer sequences were 5′-[…]-3′ (forward) (SEQ ID NO: 38) and 5′-[…]-3′ (reverse) (SEQ ID NO: 39).
Echocardiographic analysis using a Vevo2100 digital imaging system (Visual Sonics, Toronto, ON, Canada) was performed under 1% isoflurane at 6 and 10 weeks of age, with mid-ventricular M and B mode measurements acquired in the parasternal short-axis view at the level of the papillary muscles. Once the mice were acclimated to the procedures, images were stored in digital format on a magnetic optical disk for review and analysis. Measurements of the LV internal end-diastolic diameter (LVIDd) were made at the time of apparent maximal LV diastolic dimension, while measurements of the LV internal end-systolic diameter (LVIDs) were taken at the time of the most anterior systolic excursion of the posterior wall. LV ejection fraction (EF) was calculated by the cubic method: LVEF (%)={(LVIDd)^3−(LVIDs)^3}/(LVIDd)^3×100, and LV fractional shortening (FS) was calculated by FS (%)=(LVIDd−LVIDs)/LVIDd×100. The data were averaged from 5 cardiac cycles.
Histological analysis of heart tissue was as previously described (Zhang, T. et al. Nature medicine 22, 175-182, doi: 10.1038/nm.4017 (2016)). The CardioTACS™ in situ apoptosis detection kit (Roche Applied Science, Cat #: 11684795910) was used for TUNEL staining as previously described (Zhang, T. et al. Nature medicine 22, 175-182, doi:10.1038/nm.4017 (2016)).

**Q.** `COc1cccc2c1C(=O)c1c(O)c3c(c(O)c1C2=O)C[C@@](O)(C(=O)CO)C[C@@H]3O[C@H]1C[C@H](N)[C@H](O)[C@H](C)O1` [Doxorubicin] was tested. Which “expression of CaMKII-δ9 (protein)” value (CaMKII-δ9) did it give?
**A.** significantly elevated

**Q.** What about the “oxidation level of CaMKII-δ9” value (CaMKII-δ9; Dox 1 μM, 30 and 60 min) of the same molecule?
**A.** increased

**Q.** What about the “phosphorylation level of CaMKII-δ9” value (CaMKII-δ9; Dox 1 μM, 30 and 60 min) of the same molecule?
**A.** increased

**Q.** How did the UBE2T protein level (UBE2T [1]; NRVMs, western blot) turn out when `OO` [H2O2] was run?
**A.** decreased

**Q.** And the “expression of CaMKII-δ9 (protein)” value (CaMKII-δ9)?
**A.** significantly elevated

**Q.** What does the source list for `CC(C)C[C@@H](C=O)NC(=O)[C@H](CC(C)C)NC(=O)[C@H](CC(C)C)NC(=O)OCc1ccccc1` [MG132] (Cbz-Leu-Leu-Leu-aldehyde)?
**A.** CaMKII-δ9-induced reduction of the UBE2T protein level (UBE2T [1]): fully abolished; CaMKII-δ9-mediated γH2AX upregulation (NRVMs): block; subcellular location of UBE2T (UBE2T [2]): present in both the nuclear and cytosolic compartments

**Q.** What does the source list for `CC(C)[C@H](O)[C@@]12NC(=O)[C@H](C)[C@@H]1OC2=O` [β-lac, clasto-lactacystin β-lactone]?
**A.** CaMKII-δ9-induced reduction of the UBE2T protein level (UBE2T [1]): fully abolished; CaMKII-δ9-mediated γH2AX upregulation (NRVMs): block

B1: CaMKII-δ9 shRNA: miR30-based CaMKII-δ9 shRNA (SEQ ID NO: 37) targeting exon 16, expressed transgenically in mice (nucleic acid)
DNA: GAAGGTATATTGCTGTTGACAGTGAGCGCAATCCACAACCCTGACGGAAATAGTGAAGCCACAGATGTATTTCCGTCAGGGTTGTGGATTATGCCTACTGCCTCGG
**Q.** How did the “TAC-induced cardiac DNA damage (γH2AX)” value (exon 16 of CaMKII-δ; 4 weeks after TAC surgery) turn out when B1 was run?
**A.** reduced

**Q.** What about the TAC-induced cardiac hypertrophy (exon 16 of CaMKII-δ; 4 weeks after TAC surgery) of the same molecule?
**A.** markedly attenuated

**Q.** What about the “TAC-induced cardiomyocyte death (TUNEL)” value (exon 16 of CaMKII-δ; 4 weeks after TAC surgery) of the same molecule?
**A.** reduced

**Q.** What about the “TAC-induced contractile dysfunction (EF, FS)” value (exon 16 of CaMKII-δ; 4 weeks after TAC surgery) of the same molecule?
**A.** markedly attenuated

**Q.** What about the “cardiac UBE2T protein abundance” value (exon 16 of CaMKII-δ; 4 weeks after TAC surgery) of the same molecule?
**A.** augmented

**Q.** And the TAC-induced premature death (exon 16 of CaMKII-δ; Kaplan-Meier survival)?
**A.** markedly attenuated
